This is an account of results in patent publication US5540861A (priority 1994, dated 1996).

A short description of series [1]: in vivo. The note with it: po.
The conditions of series [2]: in vivo.

The molecule `CCCCc1cc([N+](=O)[O-])c(O)c([N+](=O)[O-])c1` [DNBP (C4), 2,6dinitro-4-butylphenol] returned an LD50 in series [1] of 30 mg/kg.
As to `[Cl-].[Na+]` [Sodium Chloride], the “ORAL LD50” value in series [2] is recorded as 3,000 mg/kg.
For `CCO` [Ethanol], in series [2], the “ORAL LD50” value was 7,080 mg/kg.
Take `CCCCCCCCCc1cc([N+](=O)[O-])c(O)c([N+](=O)[O-])c1` [DNNP (C9), 2,6dinitro-4-nonylphenol]: the LD50 in series [1] was determined as 50 mg/kg.
